Results on 15 molecules are retold here after US5854250A, “N-benzoylamino acid derivatives, pharmaceutical compositions containing them and process of preparing same” (Gyogyszerkutato Intezet KFT, priority 1997, dated 1998).

For one series, the system named is lipid peroxidation. Particulars: J. M. Braughler et al.; cited from earlier work.
For series [1] the following is noted: cited from earlier work.
Another series has as its system small intestine section. Description: ischaemic intestine injury in rats. It counts as in vivo, Male CFY rats. Particulars: Rattus norvegicus; 25 mg/kg oral, 2 hours before the operation; read-out: Inhibition of ischaemia (%). As to the method: A) Effect of compounds of the general formula (I) on the ischaemic intestine injury in rats
The method of D. A. Parks et al. [Surgery 92, 869 (1985)] was employed in these experiments.
Male CFY rats with an average body-weight of 250 g were starved for 24 hours before the surgical intervention but water was allowed ad libitum. The compound to be tested was orally administered in a 25 mg/kg dose by 2 hours before the operation.
The abdominal wall was opened along the median line under ether anaesthesia. The appropriate small intestine section was made ischaemic by ligating both small branches belonging to the pancreatico-duodenal artery. The shame-operated control animals were subjected only to the surgical intervention but their blood vessels were not ligated. The wound was closed and after 2 hours the abdominal cavity of the animals was again opened under ether anaesthesia. The thickened intestinal section was removed, its length and weight were determined and the significance was calculated by Duncan's test [D. B. Duncan: Biometrics 11, 1 (1955)] (with the weights corrected for a length of 20 mm) on the one hand, between the sham-operated and ischaemized vehicle-control animals; and on the other hand, between the ischaemized control animals and ischaemized animals treated with the compound to be tested. The edema-induced weight increase in the intestinal section was expressed as percentage.

A further series relates to brain microsomes. Description: NADPH-dependent peroxidation of brain microsomes. It counts as biochemical, OFA rats. The settings on record: rat brain microsomes, pH 6.8, 15 minutes, read-out: IC50 on brain microsome. The protocol:
C) The effect of compounds of general formula (I) on the NADPH-dependent peroxidation of brain microsomes
This study was carried out by using the method of T. J. Player and A. A. Morton [J. Neurochem. 37, 422 (1981)].
OFA rats of 3 months age were decapitated and their whole brain was homogenized in ice-cold 0.25M saccharose solution. After centrifuging the homogenate at 15000×g for 10 minutes, the supernatant was decanted and the residue was further centrifuged at 78000×g for 60 minutes. The preparation having a concentration of 10-20 mg of protein/ml was divided to aliquots.
2) Measurement of the microsomal lipid peroxidatiorn
The measurement was carried out at […] in a reaction mixture with the following composition; 0.05M Tris maleate (pH 6.8) buffer, 1.0 mM KH2 SO4, 1.0 mM ADP, 0.2 mM FeCl3 and 0.4 mM NAOPH. NAOPH was not added to the reaction mixture used for determination of the baseline activity. The reaction was initiated […] by adding 0.5 mg of membrane protein and stopped after incubation for 15 minutes. Subsequently, the samples were centrifuged at 950×g for 20 minutes. The thiobarbituric acid-reactive products were determined in 1 ml of supernatant each by using the method of Z. Dunied [Biochem. Pharmacol. 32, 2283 (1983)].

In a further series the test system is brain homogenate. Kind of series: iron(II) ion-dependent peroxidation of brain homogenate. It counts as biochemical, OFA rats. The settings on record: rat brain homogenate in Krebs buffer; iron(II) initiated. As to the method:
(§1) The thiobarbituric acid-reactive products were determined by a modification of J. A. Buege [Meth. Enzymology 52, 302 (1978)] as follows. 0.55 ml of 2% thiobarbituric acid was added to the solution and the samples were boiled for 20 minutes. After cooling down, the samples were diluted with distilled water, then chloroform was added. After centrifuging the tubes at 400×g for 7 minutes, the quantity of the thiobarbituric acid-reactive products was determined in the supernatant by spectrophotometry at 535 nm. The effect of the compound to be tested was characterized by its IC50 value (i.e. the concentration resulting in an 50% inhibition). α-Tocopherol was used as reference compound.
B) The effect of compounds of general formula (I) on the iron(II) ion-dependent peroxidation of brain homogenate
The measurement was carried out by using the method of J. M. Braughler [J. Biol. Chem. 262, 10438 (1987)].
In these experiments OFA rats with a body-weight of 150-200 g were decapitated and brain homogenates were prepared in Krebs buffer solution, then the Method A) was followed.

Series [2] has as its system reperfusion-induced arrhythmia. Kind of series: reperfusion-induced arrhythmia in rats. It counts as in vivo, male SPRD rats. The settings on record: for Average duration of VT/VF: one hour before, S ± SE/min. As to the method: B) Investigations on the model of reperfusion-induced arrhythmia in rats
In these experiments, the reperfusion-induced arrhythmia was developed in male SPRD rats weighing 400 g in average by using the method Lamontagne et al. [Fundam. Clin. Pharmacol. 3, 671 (1989)].
The chest of artificially respirated animals was opened under pentobarbital anaesthesia and a thread was implanted under the left coronary. After an equilibration period of 15 minutes, in the case of an arterial blood pressure of at least 60 Hgmm, a myocardial ischaemia was induced by ligating the coronary for 5 minutes. This was followed by a reperfusion lasting for 10 minutes. The duration of arrhythmia, ventricular tachycardia (VT) and ventricular fibrillation (VF), respectively, developed within 3 minutes after reperfusion were registered in a lead-II ECG.
The average durations of VT and VF, respectively related to 1 minute were determined and the number of deaths induced by arrhythmia was also registered.
The compound to be tested was orally administered one hour before the experiment.
The statistical data were calculated by using Duncan's test (duration of VT and VF, respectively) or the chi^2 test (number of deaths) [S. Bolton in: "Pharmaceutical Statistics", pages 169-173 (1990), Marcel Dekkar] following the variance analysis in relation to the vehicle control.

Another series deals with arachidonic acid. Kind of series: iron(II)-dependent peroxidation of arachidonic acid. It counts as biochemical. The settings on record: 37° C., in methanol; iron(II) initiated; thiobarbituric acid-reactive products, 535 nm; read-out: IC50 on arachidonic acid substrate. As to the method: A) The effect of compounds of general formula (I) on the iron(II)-dependentperoxidation of arachidonic acid
The peroxidation of arachidonic acid was measured by using the method of J. M. Braughler [J. Biol. Chem. 262, 10438 (1986)] at 37° C. in methanol. The compound to be tested was investigated at various concentrations. The peroxidation was initiated by adding 10^-4 mol of iron(II) (ferrous) ion (to result in a final volume of 0.5 ml).
as §1

Series [3] in a line: acute oral toxicity in rats. Particulars: rat, in vivo. The source says:
The toxicity of the compounds according to the invention was studied in rats.

Series [4] has as its system heart-damaging effect of vasopressin. Particulars: G. Razzaboni et al.; cited from earlier work.
The subject of series [5] is dopamine level of corpus striatum. Description: neurotoxicity-inhibiting effect in mice (MPTP-induced dopamine depletion). It counts as in vivo, Male C-57 mice. Particulars: for Dopamine level: then 50 mg/kg. As to the method:
C) Study on the neurotoxicity-inhibiting effect in mice This study was carried out by using the method of R. E. Heikkila at al. [Science 224, 1451 (1984)] or by some modification of this method being very suitable to investigate compounds which are potentially active against Parkinson's disease. […] MPTP). […] One hour after the last administration, 40 mg/kg of MPTP and then an additional amount of 50 mg/kg of the compound to be tested were intraperitoneally administered. The animals were killed after 4 days, their brain was removed and the corpus striatum was separated. The dopamine level of corpus striatum was determined by high performance liquid chromatography (HPLC).

The mark [6] stands for this setting: with MPTP treatment (+), 40 mg/kg, compound 100 mg/kg i.p. once daily for 3 days, a p < 0.01, b p < 0.05 vs MPTP control.
[7] abbreviates: without MPTP treatment (-), 100 mg/kg i.p. once daily for 3 days.

In the case of `C[C@@H]1C[C@H]2[C@@H]3CCC4=CC(=O)C=C[C@]4(C)C3=CC[C@]2(C)[C@H]1C(=O)CN1CCN(c2cc(N3CCCC3)nc(N3CCCC3)n2)CC1` [Example U74006F], in the series on lipid peroxidation, the “inhibition of lipid peroxidation” value is “strongly inhibited”. For the same molecule, the in vivo activity entry in series [1] is on record as “proven”.
The term IC50 denotes the concentration at which inhibition is half-maximal. The LD50 is the dose at which mortality reaches 50%. A low value points to greater toxicity. Regarding `O=C(O)CCCCCNC(=O)c1cc(O)ccc1O` [Example 25], the inhibition in vivo at 25 mg/kg with small intestine section amounted to 61%. Moreover, the IC50 worked out at 100 µM in the series with brain microsomes, 100 µM in the series on brain homogenate and 15 µM in the series on arachidonic acid. Further, the “No. of deaths (lethal VT/VF)” value is reported as 4/8 in series [2] (50 mg/kg p.o.) and 1/10 in [2] (100 mg/kg p.o., *p < 0.05). For the same molecule, the “Average duration of VT/VF” value is 37.3 ± 5.7 S/min in [2] (50 mg/kg p.o.) and 28.0 ± 5.1 S/min in [2] (100 mg/kg p.o., **p < 0.01). In series [3], this molecule gave a 50% lethal dose (LD50) of over 1000 mg/kg.
For `CCOC(=O)CCCCCCCCCCNC(=O)c1cc(O)ccc1O` [Example 31, ethyl 11-[N-(2,5-dihydroxybenzoyl)amino]undecanoate], the IC50 in the series with brain microsomes was found to be 6.6 µM; with brain homogenate, 16 µM; with arachidonic acid, 100 µM.
Consider `COC(=O)CCCNC(=O)c1cc(O)ccc1O` [Example 40, methyl 4-[N-(2,5-dihydroxybenzoyl)amino]butanoate], for which the inhibition in vivo at 25 mg/kg in the series on small intestine section came to 72%.
Regarding `COC(=O)CCCCCNC(=O)c1cc(O)ccc1O` [Example 41, Methyl 6-{[N-(2,5-dihydroxybenzoyl)amino]hexanoate}], in the series on small intestine section, the inhibition in vivo at 25 mg/kg is 75%.
Take `O=C(O)CCCCNC(=O)c1cc(O)ccc1O` [Example 37]: in the series with small intestine section, the inhibition in vivo at 25 mg/kg amounted to 73%. The IC50 with brain microsomes is 100 µM; in the series with brain homogenate, 100 µM; in the series with arachidonic acid, 31 µM. The molecule further displayed a 50% lethal dose (LD50) in [3] of over 1000 mg/kg.
On to `O=C(NCCCCCC(=O)N1CCCC1=O)c1cc(O)ccc1O` [Example 30], for which the inhibition in vivo at 25 mg/kg in the series with small intestine section stood at 70%.
In the case of `O=C(NCCCCCC(=O)N1CCN(CCCc2ccccc2)CC1)c1cc(O)ccc1O` [Example 34], the IC50 was 8.6 µM in the series on brain microsomes, 40 µM in the series on brain homogenate and 100 µM with arachidonic acid.
In the case of `O=C(NCCCCCC(=O)N1CCN(c2cc(N3CCCC3)nc(N3CCCC3)n2)CC1)c1cc(O)ccc1O` [Example 35], the inhibition in vivo at 25 mg/kg in the series on small intestine section worked out at 63%. Moreover, the IC50 with brain microsomes was determined as 5.3 µM; in the series with brain homogenate, 3.3 µM; with arachidonic acid, 27 µM. The LD50 in [3] was over 1000 mg/kg.
Consider `Cc1c(C)c2c(c(C)c1O)CCC(C)(CCCC(C)CCCC(C)CCCC(C)C)O2` (stereo not drawn) [α-Tocopherol, reference compound], for which the IC50 is over 100 µM in the series on brain microsomes, 7 µM in the series on brain homogenate and 1.5 µM in the series with arachidonic acid. Besides, the “Average duration of VT/VF” value in [2] (100 mg/kg p.o., **p < 0.01) is 33.1 ± 7.1 S/min; in [2] (250 mg/kg p.o., **p < 0.01), 27.2 ± 7.1 S/min. In addition, the “No. of deaths (lethal VT/VF)” value in [2] (100 mg/kg p.o., *p < 0.05) is on record as 4/8; in [2] (250 mg/kg p.o., *p < 0.05), 1/8.
For `CCCCCCCCNC(=O)CCCCCNC(=O)c1cc(O)ccc1O` [Example 29], the inhibition in vivo at 25 mg/kg with small intestine section came to 52%. Besides, the IC50 in the series on brain microsomes turned out to be 4.5 µM; in the series with brain homogenate, 9 µM; in the series on arachidonic acid, 100 µM. Also, the LD50 in [3] was over 1000 mg/kg.
Consider `COc1cc(C(=O)NCCCCCC(=O)O)ccc1O` [6-(4-hydroxy-3-methoxybenzoyl)aminohexanoic acid], for which, in series [4], the “activity against the heart-damaging effect of vasopressin” value was “inactive”.
On to `O=C(O)CCCCCCCCCCCNC(=O)c1cc(O)ccc1O` [Example 24], for which, in the series on small intestine section, the inhibition in vivo at 25 mg/kg was 63%. In addition, the half-maximal inhibitory concentration (IC50) worked out at 37 µM with brain microsomes, 4.8 µM with brain homogenate and 40 µM with arachidonic acid. The “Dopamine level, % of control” value was 24% in series [5] (with MPTP treatment (+)) and 102% in series [5] (without MPTP treatment (-)). In addition, the Dopamine level in [5] (setting [6]) is 4,85 ± 1,7 μg/g tissue; in [5] (setting [7]) it was 20,44 ± 0,6 μg/g tissue. Besides, the median lethal dose (LD50) in series [3] was over 1000 mg/kg.
With `O=C(O)CCCNC(=O)c1cc(O)ccc1O` [Example 36, 4-[N-(2,5-dihydroxybenzoyl)amino]butyric acid], the inhibition in vivo at 25 mg/kg in the series on small intestine section came to 76%. In addition, the IC50 turned out to be 100 µM in the series on brain microsomes, 100 µM in the series with brain homogenate and 3.4 µM in the series on arachidonic acid. For the same molecule, the “No. of deaths (lethal VT/VF)” value in [2] (50 mg/kg p.o.) was 4/8; in series [2] (100 mg/kg p.o., *p < 0.05), 0/10. Moreover, the “Average duration of VT/VF” value was determined as 33.0 ± 9.9 S/min in series [2] (50 mg/kg p.o.) and 20.6 ± 6.3 S/min in [2] (100 mg/kg p.o., **p < 0.01). Further, the “Dopamine level, % of control” value worked out at 33% in series [5] (with MPTP treatment (+)) and 103% in series [5] (without MPTP treatment (-)). Further, the results for the Dopamine level in [5] (setting [6]) and in series [5] (setting [7]) were 6,68 ± 1,0 μg/g tissue and 20,67 ± 0,5 μg/g tissue, respectively. This molecule also showed an LD50 in series [3] of over 1000 mg/kg.
For the molecule `CCOC(=O)CCCCCCCCCCCNC(=O)c1cc(O)ccc1O` [Example 32], the half-maximal inhibitory concentration (IC50) in the series on brain microsomes turned out to be 7.9 µM; in the series with brain homogenate, 12 µM; in the series with arachidonic acid, 100 µM.
